We go through 24 molecules from PubChem BioAssay AID212 (DTP/NCI, 2004).

In this assay the test system is BDF1 mice, colon carcinoma 38 sc, T/C %. The assay can be described thus: NCI In Vivo Anticancer Drug Screen. Data for tumor model Colon Carcinoma 38 (subcutaneous) in B6D2F1 (BDF1) mice. The note with it: endpoint: median tumor weight (est.), schedule: Q07DX002 (ip), higher = larger tumour. The procedure, abridged:
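Transplantable tumor in mice; compound-treated vs vehicle-dosed controls. Measured survival or tumor size; value = T ÷ C.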

The mark [1] stands for this setting: dose: 25.0 mg/kg/injection, vehicle: Klucel (hydroxypropylcellulose) (HPC).
Setting [2] is: dose: 50.0 mg/kg/injection, vehicle: Klucel (hydroxypropylcellulose) (HPC).
Setting [3] is: dose: 100.0 mg/kg/injection, vehicle: Klucel (hydroxypropylcellulose) (HPC).
[4] abbreviates: dose: 200.0 mg/kg/injection, vehicle: Klucel (hydroxypropylcellulose) (HPC).
[5] abbreviates: dose: 100.0 mg/kg/injection, vehicle: saline.
Setting [6] is: dose: 200.0 mg/kg/injection, vehicle: saline.
Setting [7] is: dose: 25.0 mg/kg/injection, vehicle: saline.
The mark [8] stands for this setting: dose: 50.0 mg/kg/injection, vehicle: saline.
Setting [9] is: dose: 800.0 mg/kg/injection, vehicle: saline.
Where [10] appears, read: dose: 25.0 mg/kg/injection, vehicle: saline with Tween-80.
[11] abbreviates: dose: 50.0 mg/kg/injection, vehicle: saline with Tween-80.
[12] abbreviates: dose: 100.0 mg/kg/injection, vehicle: saline with Tween-80.
Setting [13] is: dose: 200.0 mg/kg/injection, vehicle: saline with Tween-80.
[14] abbreviates: dose: 12.5 mg/kg/injection, vehicle: saline with Tween-80.
Setting [15] is: dose: 400.0 mg/kg/injection, vehicle: Klucel (hydroxypropylcellulose) (HPC).
[16] abbreviates: dose: 112.0 mg/kg/injection, vehicle: saline with Tween-80.
[17] abbreviates: dose: 400.0 mg/kg/injection, vehicle: saline.
The mark [18] stands for this setting: dose: 12.5 mg/kg/injection, vehicle: saline.

Where “and” joins values, the source holds several entries; their conditions need not be identical. Equal values may be shown once. Results filed as inconclusive are left out.

As for `C=CCNc1ccc(C)cc1`, the T/C is 72 % of control (dose: 12.5 mg/kg/injection, vehicle: Klucel (hydroxypropylcellulose) (HPC)); 92 % of control under setting [1]; 66 % of control under setting [2]; 86 % of control under setting [3]; 78 % of control under setting [4].
`O=C(O)Cc1cccc2c(=O)cc(-c3ccc4ccccc4c3)oc12`: the T/C runs as follows: under setting [5], 104 % of control; under setting [6], 59 % of control.
For the molecule `CC(=O)OCC1OC(n2ccc(N)nc2=O)C(OC(C)=O)C1OC(C)=O` (stereo not given), the T/C by setting is: under setting [7], 113 % of control and 92 % of control; under setting [8], 97 % of control and 104 % of control; under setting [9], 30 % of control and 36 % of control.
For `O=C(Nc1ccccc1C(=O)O)c1cc([N+](=O)[O-])cc([N+](=O)[O-])c1`, the T/C was 110 % of control and 88 % of control under setting [10]; 78 % of control and 85 % of control under setting [11]; 69 % of control under setting [12]; 83 % of control and 86 % of control under setting [13].
For the molecule `CC1(C)CC2(C)OC2C2(C1)N=NC(=Nc1ccccc1)O2` (stereo not given), the T/C was 119 % of control under setting [11], 101 % of control under setting [12] and 213 % of control under setting [13].
In the case of `O=C1N=C(Oc2ccccc2)SC1=O`, the T/C is 95 % of control under setting [14]; 62 % of control and 80 % of control under setting [10]; 53 % of control under setting [11]; 88 % of control under setting [12]; 118 % of control under setting [13].
In the case of `COC1C=CC23c4cc5c(cc4C(O)OC2CN(C)C3C1)OCO5` (stereo not given), the T/C is 91 % of control (dose: 18.75 mg/kg/injection, vehicle: suspension in saline); 82 % of control (dose: 37.5 mg/kg/injection, vehicle: suspension in saline); 105 % of control (dose: 75.0 mg/kg/injection, vehicle: suspension in saline).
In the case of `Cc1ccc2c(c1)n([O-])c1cc(Cl)ccc1[n+]2=O`, the T/C was 118 % of control under setting [10]; 102 % of control under setting [11]; 78 % of control under setting [12]; 76 % of control under setting [13]; 79 % of control (dose: 400.0 mg/kg/injection, vehicle: saline with Tween-80).
For `O=C(O)/C=C/C(=O)N1Cc2cc3ccccc3nc2C1`, the T/C is, setting by setting: under setting [14], 84 % of control; under setting [11], 89 % of control; under setting [12], 173 % of control; under setting [13], 104 % of control.
Regarding `Cc1ccc(S(=O)(=O)OCOS(=O)(=O)c2ccc(C)cc2)cc1`, the T/C reads like this: under setting [3], 61 % of control; under setting [4], 104 % of control; under setting [15], 80 % of control and 93 % of control; (dose: 1600.0 mg/kg/injection, vehicle: Klucel (hydroxypropylcellulose) (HPC)) 19 % of control and 27 % of control.
With `ClC1C(Cl)C(Cl)C(Cl)C(Cl)C1Cl` (stereo not given), the T/C by setting is: under setting [1], 103 % of control; under setting [2], 88 % of control; (dose: 56.0 mg/kg/injection, vehicle: saline with Tween-80) 109 % of control and 95 % of control; under setting [3], 71 % of control; under setting [16], 69 % of control and 82 % of control; under setting [4], 113 % of control. The T/C under setting [15] was 118 % of control; the T/C (dose: 450.0 mg/kg/injection, vehicle: saline with Tween-80) is 80 % of control and 85 % of control.
With `CCCC(=O)OC1C=C2N3C(=O)C4CC56C(=CC(OC(C)=O)C7OC75)N4C(=O)C3CC26C2OC12` (stereo not given), the T/C was 111 % of control (dose: 1.25 mg/kg/injection, vehicle: Klucel (hydroxypropylcellulose) (HPC)); 92 % of control (dose: 2.5 mg/kg/injection, vehicle: Klucel (hydroxypropylcellulose) (HPC)); 102 % of control (dose: 5.0 mg/kg/injection, vehicle: Klucel (hydroxypropylcellulose) (HPC)); 76 % of control (dose: 10.0 mg/kg/injection, vehicle: Klucel (hydroxypropylcellulose) (HPC)).
As to `NS(=O)(=O)c1cc2c(cc1Cl)NC=NS2(=O)=O`, the T/C (dose: 75.0 mg/kg/injection, vehicle: Klucel (hydroxypropylcellulose) (HPC)) is 120 % of control; the T/C (dose: 150.0 mg/kg/injection, vehicle: Klucel (hydroxypropylcellulose) (HPC)) is 113 % of control; the T/C (dose: 300.0 mg/kg/injection, vehicle: Klucel (hydroxypropylcellulose) (HPC)) was 90 % of control; the T/C (dose: 1200.0 mg/kg/injection, vehicle: Klucel (hydroxypropylcellulose) (HPC)) is 60 % of control.
Regarding `Nc1ccc(Cl)cc1N`, the T/C is 75 % of control and 97 % of control under setting [14]; 78 % of control and 92 % of control under setting [10].
With `O=C(Nc1ccccc1)c1c(O)[nH]c(=S)[nH]c1=O`, the T/C was 68 % of control under setting [16] and 51 % of control (dose: 225.0 mg/kg/injection, vehicle: saline with Tween-80).
`O=c1ssc(=Nc2ccccc2)n1-c1ccccc1`: the T/C under setting [3] was 97 % of control and 102 % of control.
Turning to `COC(=O)C(N)Cc1ccc(O)c(O)c1` (stereo not given), the T/C was 85 % of control under setting [8]; 113 % of control under setting [5]; 88 % of control under setting [6]; 99 % of control under setting [17]; 110 % of control under setting [9]; 51 % of control (dose: 1600.0 mg/kg/injection, vehicle: saline).
Turning to `NCC1CCC(C(=O)O)CC1` (stereo not given), the T/C under setting [10] is 83 % of control, the T/C under setting [11] was 104 % of control, the T/C under setting [12] was 99 % of control and the T/C under setting [13] is 102 % of control.
Turning to `CCCCCCCC(=O)[O][Hg][CH2]C1COC([CH2][Hg][O]C(=O)CCCCCCC)CO1` (stereo not given), the T/C is, setting by setting: (dose: 3.12 mg/kg/injection, vehicle: saline with Tween-80) 76 % of control and 97 % of control; (dose: 6.25 mg/kg/injection, vehicle: saline with Tween-80) 101 % of control; under setting [10], 108 % of control and 105 % of control; under setting [12], 81 % of control.
As to `Cc1cc2c(c3oc(C4(C)OC4C4OC4C)cc(=O)c13)C(=O)c1c(O)c(C3CC(C)(N(C)C)C(O)C(C)O3)cc(C3CC(N(C)C)C(O)C(C)O3)c1C2=O` (stereo not given), the T/C by setting is: (dose: 3.75 micrograms/kg/injection, vehicle: Klucel (hydroxypropylcellulose) (HPC)) 62 % of control; (dose: 7.5 micrograms/kg/injection, vehicle: Klucel (hydroxypropylcellulose) (HPC)) 90 % of control; (dose: 15.0 micrograms/kg/injection, vehicle: Klucel (hydroxypropylcellulose) (HPC)) 99 % of control; (dose: 30.0 micrograms/kg/injection, vehicle: Klucel (hydroxypropylcellulose) (HPC)) 57 % of control.
On to `NC(=O)c1ccc[n+](Cc2c(Cl)cccc2Cl)c1`, for which the T/C was 83 % of control and 94 % of control (dose: 3.12 mg/kg/injection, vehicle: saline); 68 % of control (dose: 6.25 mg/kg/injection, vehicle: saline); 97 % of control under setting [18]; 116 % of control and 94 % of control under setting [7]; 85 % of control and 90 % of control under setting [5].
`C1CC[N-]CC1.[Cl][Pt+2][Cl].[NH-]C1CC1`: the T/C runs as follows: (dose: 6.25 mg/kg/injection, vehicle: water) 75 % of control; (dose: 25.0 mg/kg/injection, vehicle: water) 86 % of control; (dose: 100.0 mg/kg/injection, vehicle: water) 163 % of control.
For the molecule `Nc1ccn([C@@H](C=O)O[C@@H](C=O)CO)c(=O)n1`, the T/C under setting [18] was 99 % of control; the T/C under setting [7] was 71 % of control; the T/C under setting [8] is 58 % of control; the T/C under setting [5] was 86 % of control; the T/C under setting [6] was 73 % of control.
As for `N/C=N/O`, the T/C was 124 % of control under setting [7]; 70 % of control under setting [8]; 97 % of control under setting [5]; 92 % of control under setting [6]; 56 % of control under setting [17].
